# In patent publication US8883169B2, “Immunogen platform” (Chrontech Pharma AB, priority 2007, dated 2014):
# Tests used:
# antibodies to HBsAg = assay: EIA of antibody titer to HBsAg after Engerix vaccine with or without ribavirin; type: in vivo, mice; settings: 1 mg ribavirin, i.p., booster on week four, bled on week six
# Description: (Engerix, SKB). […] A booster containing the same mixture was given on week four and all mice were bled on week six.
# [1] = test system: NS3-specific IgG1 and IgG2a antibodies; assay: EIA of NS3-specific IgG subclasses (IgG1, IgG2a); type: in vivo, mice; settings: 10 μg rNS3 with 0.1 or 1.0 mg ribavirin i.p. at weeks 0 and 4, bled at week six
# antibodies to rNS3 = assay: EIA of antibodies to rNS3 after immunization with rNS3 with or without ribavirin; type: in vivo, Balb/c mice
# Experimental: In a first set of experiments, groups of three to five Balb/c mice (BK Universal, Uppsala, Sweden) were immunized i.p or s.c. (e.g., at the base of the tail) with 10 μg or 100 μg of recombinant hepatitis C virus non-structural 3 (rNS3) protein. […] Mice were injected with a total volume of […] per injection.
# At two and four weeks following i.p. immunization, all mice were bled by retro-orbital sampling. Serum samples were collected and analyzed for the presence of antibodies to rNS3. To determine the antibody titer, an enzyme immunoassay (EIA) was performed. (See e.g., Hultgren et al., J Gen Virol. 79:2381-91 (1998) and Hultgren et al., Clin. Diagn. Lab. Immunol. 4:630-632 (1997)). The antibody levels were recorded as the highest serum dilution giving an optical density at 405 nm more than twice that of non-immunized mice.
# At four, six and eight weeks the mice were bled and serum was separated and frozen. After completion of the study, sera were tested for the levels of antibodies to recombinant NS3, as described above. Mean antibody levels to rNS3 were compared between the groups using Student's t-test (parametric analysis) or Mann-Whitney (non-parametric analysis) and the software package StatView 4.5 (Abacus Concepts, Berkeley, Calif.). […] The values given represent end point titres to recombinant rNS3.
# The levels of antibody to the antigen were then determined by EIA.
# A second set of experiments was also performed. […] The mice were bled at week six and rNS3-specific IgG levels were determined by EIA as described previously.
# [2] = test system: CD4+ T cells of lymph nodes; assay: In vitro recall assay, CD4+ T cell proliferation by [3H]thymidine incorporation; type: cell-based, mice; settings: 100 μg rNS3 mixed with 1 mg ribavirin s.c.; ten days post-immunization; 96 h of culture
# Experimental: This assay can be used with any ribavirin derivative or combinations of ribavirin derivatives to determine the extent that a particular vaccine formulation modulates a cellular immune response. […] The mice were sacrificed ten days post-immunization and their lymph nodes were harvested and drained. In vitro recall assays were then performed. (See e.g., Hultgren et al., J Gen Virol. 79:2381-91 (1998) and Hultgren et al., Clin. Diagn. Lab. Immunol. 4:630-632 (1997)). The amount of CD4^+ T cell proliferation was determined at 96 h of culture by the incorporation of [^3H]thymidine.
# [3] = test system: NS3/4A-expressing EL-4 lymphoma cells; assay: In vivo inhibition of growth of NS3/4A-expressing EL-4 tumor cells; settings: C57BL/6 mice immunized only once
# Experimental: To confirm that inhibition of tumor growth using the NS3/4A-expressing EL-4 cell line is fully dependent on an NS3/4A-specific immune response a control experiment was performed. […] Two weeks after the last immunization the mice were challenged with an s.c. injection of 10^6 native EL-4 or NS3/4A-expressing EL-4 cells (NS3/4A-EL-4). An NS3/4A-specific immune response was required for protection, since only the immunized mice were protected against growth of the NS3/4A-EL-4 cell line (FIG. 10A). Thus, this H-2^b-restricted model behaves similarly to the SP2/0 H-2^d restricted model.
# As set forth herein, the NS3/4A gene can be used as a vaccine. Although it had been determined that NS3/4A quickly primed in vivo functional CTLs, the effect of therapeutic immunization after the injection of tumor cells was analyzed next. Groups of ten C57BL/6 mice were challenged with 10^6 NS3/4A-EL-4 tumor cells. […]
# In vivo challenge of immunized mice with the NS3/4A-expressing SP2/0 myeloma or EL-4 lymphoma cell line was performed according to the method described by Encke et al., supra. […] The kinetics of the tumor growth was determined by measuring the tumor size through the skin at days six to 20. […]
# To test the therapeutic effect of the vaccines groups of mice were inoculated with the tumor cells as described above. […] The tumor growth was monitored from day 6 to day 20.
# [4] = test system: NS3 and birch specific T cells; assay: ELISpot assay of γ-IFN-secreting CTLs and T helper cells (NS3 and birch specific); type: cell-based, C57/BL6 mice; settings: immunized twice, 4 weeks apart; two weeks after the second injection
# Experimental: (§1) Groups of C57/BL6 mice were immunized twice with 50 μg of either plasmid containing a codon optimized NS3/4A gene, a NS3/4A-Betv1 fusion gene containing a protease cleavage site between NS3 and NS4A as well as a protease cleavage site between the NS4A and the birch antigen (SEQ ID NO: 1380), or a NS3/4A-Betv1 fusion gene containing a protease cleavage site between NS3 and NS4A, a protease cleavage site between the NS4A and the birch antigen as well as two additional protease cleavage sites within the birch antigen (SEQ ID NO: 1381) using an electroporation device. Another group of mice were immunized twice with recombinant Betv1 protein (rBetv1) in Freunds incomplete adjuvant. The two immunizations were 4 weeks apart. The mice were sacrificed two weeks after the second immunizations and the lymph nodes and spleens of each group were collected and analyzed.
# The presence of γ-IFN-secreting CTLs and T helper (Th) cells to antigens in splenocyte or lymph node cultures were evaluated using a commercially available ELISpot assay. […] The ability of NS3-specific and birch-specific Th and CTLs to produce γ-IFN recalled by a concanavalin-A (con-A) as a positive control, media alone as a negative control, native HBcAg, recombinant HBcAg (rHBcAg), various concentrations of NS3/4A CTL peptide, various concentrations of rNS3, and various concentrations of rBetv1 was analyzed via the ELISpot.
# IgE to Betv1 = assay: ELISA of IgE antibodies on recombinant birch protein; type: in vivo, C57/BL6 mice; settings: immunized twice, bled two weeks after the second immunization
# Experimental: as §1, with “bled” for “sacrificed”, “immunizations.” for “immunizations and the lymph nodes and spleens of each group were collected and analyzed.”
# Dilutions of the sera were tested on ELISA plates coated with recombinant birch protein. A secondary antibody specific for IgE antibodies was used to detect bound antibody. […] The DNA constructs are thus not allergenic in that they prime a Th1 type response.
molecule,measurement,setting,value
"NC(=O)c1ncn([C@@H]2O[C@H](CO)[C@@H](O)[C@H]2O)n1 [ribavirin, 1-β-D-ribofuranosyl-1,2,4-triazole-3-carboxamide]",response to Engerix vaccine (HBsAg and alum),antibodies to HBsAg,enhanced the response to 2 μg of an existing vaccine
same,effect on the IgG subclass response in the NS3-specific immune response,[1],does not change the IgG subclass response
same,"effect on antibody levels, higher doses (1-10 mg) of ribavirin","antibodies to rNS3; 20 μg rNS3, weeks 1 and 3",enhance antibody levels at week three
same,"effect on antibody levels, low doses (<1 mg) of ribavirin","antibodies to rNS3; 20 μg rNS3, weeks 1 and 3",enhance antibody levels at week one but not at week three
same,antibody titer compared to formulations composed of only rNS3,"antibodies to rNS3; 1 mg of ribavirin and either 10 μg or 100 μg of rNS3, two weeks post-immunization",significantly greater antibody titer
same,immune response compared to that elicited without ribavirin,antibodies to rNS3; approximately 1 to 3 mg doses of ribavirin,more than 12 times
same,T cell proliferative response compared to 100 μg rNS3 in PBS,[2],much greater T cell proliferative response
"GAVQNEVTL (Artificial Peptide, NS3/4A H-2D Binding Peptide) [NS3-derived CTL peptide]",protection against growth of NS3/4A-EL-4 tumors after a single immunization,[3],not protected
"rBetv1: recombinant Betv1 protein (major Birch allergen) in Freunds incomplete adjuvant (protein, UniProt P15494 2-160, looked up, in Freund's incomplete adjuvant) Major pollen allergen Bet v …: GVFNYETETTSVIPAARLFKAFILDGDNLFPKVAPQAISSVENIEGNGGPGTIKKISFPEGFPFKYVKDRVDEVDHTNFKYNYSVIEGGPIGDTLEKISNEIKIVATPDGGSILKISNKYHTKGDHEVKAEQVKASKEMGETLLRAVESYLLAHSDAYN",priming of IFN-γ producing Betv1-specific T cells,[4],fails to do
same,priming of IgE to Betv1,IgE to Betv1,shows birch-specific IgE antibodies
